Data from patent US6403807B1, “Bridged fluorescent dyes, their preparation and their use in assays” (SurroMed, Inc., priority 1999, dated 2002).

Columns and labels:
[1] = UV-Visible absorption spectra of the dyes; type: physicochemical
Description: (§1) UV-Visible absorption spectra were recorded on Shimadzu UV-2401PC Spectrophotometer, while fluorescence measurements were performed Spex-Fluorlog2 Fluorometer (Instrument S.A. Inc.).
(§2) The spectral properties of the dyes of the previous Examples were measured. […] Other materials absorbed at the […] krypton laser wavelength.

[2] = Fluorescence measurements (excitation/emission) of the dyes; type: physicochemical
Description: as §1, §2

δmax (absorption maximum) ([1]; CH2Cl2) [nm]	δem (emission wavelength) ([2]; CH2Cl2) [nm]	SMILES	further results
671	681	CC1(C)C2=[N+](CCCCCCCCCCCCN3/C(=C/C4=C([O-])C(=C/2)/C4=O)C(C)(C)c2c3ccc3ccccc23)c2ccc3ccccc3c21 [Dye 24, Dodecanyl Bridged Benzindoleninium Squaraine Dye]	
800	820	CC1(C)C2=[N+](CCCCCCCCCCCCN3/C(=C/C=C/C=C/C=C/2)C(C)(C)c2c3ccc3ccccc23)c2ccc3ccccc3c21 [Dye 25, Dodecanyl Bridged Benzindoleninium Heptamethine Dye]	

Further lines, the compound ahead of its results:

SMILES	δmax (absorption maximum) ([1]; CH2Cl2) [nm]	δem (emission wavelength) ([2]; CH2Cl2) [nm]	further results
CC1(C)C2=[N+](CCCCCC(=O)Nc3cc(cc(C(=O)O)c3)NC(=O)CCCCCN3/C(=C/C=C/C=C/2)C(C)(C)c2cc(S(=O)(=O)O)ccc23)c2ccc(S(=O)(=O)[O-])cc21 [Dye 16, Bridged Pentamethine Indoleninium Cyanine Dye]			e (extinction coefficient at δmax) ([1]; PBS buffer): 250,000; δmax (absorption maximum) ([1]; PBS buffer): 648 nm; δem (emission wavelength) ([2]; PBS): 674 nm; δex (excitation wavelength) ([2]; PBS): 648 nm
CC1(C)C2=[N+](CCCCCC(=O)Nc3cc(cc(C(=O)O)c3)NC(=O)CCCCCN3/C(=C/C=C/C=C/C=C/2)C(C)(C)c2cc(S(=O)(=O)O)ccc23)c2ccc(S(=O)(=O)[O-])cc21 [Dye 17, Bridged Heptamethine Indoleninium Cyanine Dye]			δmax (absorption maximum) ([1]; PBS buffer): 748 nm; δem (emission wavelength) ([2]; PBS): 780 nm; δex (excitation wavelength) ([2]; PBS): 748 nm
CC1(C)C2=[N+](CCCCCCCCCCCCN3/C(=C/C=C/C=C/2)C(C)(C)c2ccccc23)c2ccccc21.[Br-] [Dye 19]	656	674	
CC1(C)C2=[N+](CCCCCCCCCCCCN3/C(=C/C4=C([O-])C(=C/2)/C4=O)C(C)(C)c2ccccc23)c2ccccc21 [Dye 20, Dodecanyl Bridged Indoleninium Squaraine Dye]	648		
CC1(C)C2=[N+](CCCCCCCCCCCCN3/C(=C/C=C/C=C/C=C/2)C(C)(C)c2ccccc23)c2ccccc21.[Br-] [Dye 21, Dodecanyl Bridged Indoleninium Heptamethine Cyanine Dye]	760	790	
CC1(C)C2=[N+](CCCCCCCCCCCCN3/C(=C/C=C/C=C/2)C(C)(C)c2c3ccc3ccccc23)c2ccc3ccccc3c21.[Br-] [Dye 23, Dodecanyl Bridged Benzindoleninium Pentamethine Cyanine dye]	696	716	
CC1(C)C2=[N+](CCCCCC(=O)Nc3cc(cc(C(=O)O)c3)NC(=O)CCCCCN3/C(=C/C=C/2)C(C)(C)c2cc(S(=O)(=O)[O-])ccc23)c2ccc(S(=O)(=O)O)cc21 [Dye 27, Bridged Trimethine Indolenium Cyanine Dye]			δmax (absorption maximum) ([1]; solvent not stated): 563 nm
CC1(C)C2=CC3=C(S)/C(=C\C4=[N+](CCCCCC(=O)Nc5cc(cc(C(=O)O)c5)NC(=O)CCCCCN2c2ccc(S(=O)(=O)O)cc21)c1ccc(S(=O)(=O)[O-])cc1C4(C)C)C3=S [Dye 28, Bridged Thiosquarylium Dye]			δmax (absorption maximum) ([1]; solvent not stated): 649 nm
